Laboratory results taken from US20130224128A1, “DENTAL CLEANSER COMPOSITION FOR IMPROVING ADHESION TO TEETH” (NANO INTELLIGENT BIOMEDICAL ENGINEERING CO., LTD., priority 2010, published 2013).
Read-outs that look alike come from different tables or passages of the source.

Conditions: surfactant applied for 2 minutes to plates coated with 100 μg/ml LPS, absorbance 620 nm, FIG. 6
Description: To measure the removal of bacterial lipopolysaccharide, a HEK-Blue LPS detection kit (InvivoGen, San Diego, Calif., USA) was used. 24-well plates were coated with 100 μg/ml of an LPS standard (E. coli K12 LPS) and allowed to stand at 4° C. for 8 hours. […] HEK-Blue cells were dispersed in detection media, after which the cells were seeded onto the plates at a density of 4×10^4 cells/well and cultured at 37° C. for 24 hours. The absorbance at a wavelength of 620 nm was measured using a microplate reader (BIO-TEK, Winooski, Vt., USA). The ratio of the remaining LPS standard was calculated using the absorbance of a lipopolysaccharide-free water-coated well as a blank.

Substance	relative ratio of the remaining LPS standard	relative ratio of the remaining LPS standard (listed as octyl phenol ethoxylate)
Sorbitan monooleate [Span 80]	higher in the order of polyoxyethylene (HLB 10)<Tween 20 (HLB 16)<Span 80 (HLB 4)	–
Tween 20	higher in the order of polyoxyethylene (HLB 10)<Tween 20 (HLB 16)<Span 80 (HLB 4)	–
octyl phenol ethoxylate [Triton X-100]	the ratio of the remaining LPS standard was the lowest	has the best effect on the removal of lipopolysaccharide
